Test results from EP0656422A1, “Cat assay” (priority 1993, dated 1995).

Target: Chloramphenicol Acetyl Transferase (CAT) (Escherichia coli, UniProt P62577)
Assay: Acetylation by CAT with ¹⁴C acetyl coenzyme A, TLC and autoradiography
Assay type: biochemical
Details: analogue 2 mM stock 80 µl, CAT enzyme 3.75 units, ¹⁴C acetyl coenzyme A 0.1 µCi, 37°C for 90 minutes; no band in no enzyme control
Description: Biotinylated chloramphenicol analogue (compound 2) was dissolved to a concentration of 2 mmolar in 50% methanol. ¹⁴C acetyl coenzyme A (50 µCi/ml, […]) was obtained commercially.
In a microcentrifuge tube were mixed Tris/HCl (1M, pH 7.8) 7.5 µl, biotinylated chloramphenicol analogue (2 mM) 80 µl, CAT enzyme 3.75 units and ¹⁴C acetyl coenzyme A 2 µl (0.1 µCi). The mix was incubated at 37°C for 90 minutes. A control reaction which contained no enzyme was performed in parallel. 20 µl of each reaction was spotted on to a cellulose TLC plate which was developed in 95/5 chloroform methanol. The TLC plate was exposed to autoradiographic film.
The lane corresponding to the reaction to which enzyme was added contains a spot which migrated under the influence of the solvent. This band is acetylated, biotinylated chloramphenicol analogue. No corresponding band is visible in the no enzyme control.

Chain of Chloramphenicol Acetyl Transferase (CAT) (P62577 whole entry, looked up): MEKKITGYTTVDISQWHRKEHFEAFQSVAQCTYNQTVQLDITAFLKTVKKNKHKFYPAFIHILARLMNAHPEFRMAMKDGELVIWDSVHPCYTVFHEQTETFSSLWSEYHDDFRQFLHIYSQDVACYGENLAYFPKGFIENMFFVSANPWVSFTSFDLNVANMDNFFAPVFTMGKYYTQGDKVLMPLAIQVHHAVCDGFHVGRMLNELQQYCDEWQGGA

CC(=O)N[C@H](CO)[C@H](O)c1ccc(NC(=O)CCCCCNC(=O)CCCC[C@@H]2SC[C@@H]3NC(=O)N[C@@H]32)cc1 [Compound 2, 6-biotinylamino-N[4-(N-acetyl-1-(2-amino-1,3-propandiol))phenyl]hexamide]
substrate of CAT (acetylated product band on TLC): is a substrate of CAT
